# From US6174907A, “Benzimidazole compounds containing 1,2,4-triazole ring, and compositions and methods of use containing the same” (Fuji Photo Film Co., Ltd., priority 1995, dated 2001)
# Where two headings read alike, the source gives them in different places.
# How the values were obtained:
# [1] = tested on: rabbits fed with high cholesterol food; assay: Suppression of formation of arterial sclerosis lesions (cholesterol deposited on inner vascular walls of aortas); type: in vivo, NZW rabbits (male); conditions: 100 mg/kg/day/rabbit in feed; aortas removed seven weeks after the administration
# Excerpt: Activity of the compounds of the present invention for suppressing the formation of arterial sclerosis lesions (in vivo experiment)
# (§1) By using rabbits fed with high cholesterol food, effect on lipid in blood and activity of the compounds of the present invention for suppressing formation of arterial sclerosis lesions were examined. Hypercholesterolemia condition was created by feeding NZW rabbits (male) weighing about 2 kg with high cholesterol feed (100 g/day/rabbit of OCR-4 [Oriental Yeast]+0.5% cholesterol+0.5% olive oil) for seven days. A group consisting of three rabbits was continuously administered with a compound of the present invention (Compound B16 or Compound B49) for seven days by mixing the compound with the above feed at an amount of 100 mg/kg/day/rabbit. Another group consisting of three rabbits was fed solely with the high cholesterol feed and used as a control group.
# Aortas were removed seven weeks after the administration, and cholesterol deposited on inner vascular walls was quantified. In the groups administered with Compound B16 or Compound B49, the amount of deposited cholesterol was reduced by 40% and 45% compared with control, respectively.
# [2] = tested on: rabbits fed with high cholesterol food; assay: Effect on lipid in blood, GOT and GPT in rabbits fed with high cholesterol food; type: in vivo, NZW rabbits (male); conditions: 100 mg/kg/day/rabbit in feed; for Difference in total cholesterol compared with the control group / Increase of HDL cholesterol / Reduction of LDL cholesterol compared with the control group: seven days, high cholesterol feed; for GOT / GPT: during the experiment
# Excerpt: as §1, with “Activity of the compounds of the present invention for suppressing the formation of arterial sclerosis lesions (in vivo experiment) By” for “By”, “group. Blood was collected from parotid veins with one week interval, and total cholesterol, LDL cholesterol, HDL cholesterol, GOT, and GPT were measured.” for “group.”
# [3] = tested on: mouse peritoneal macrophages; assay: Cytotoxicity examined microscopically (morphological alteration of cells); type: cell-based, mouse (female ICR); conditions: 5 μM, observed microscopically
# Experimental: (§2) Activity of the compounds of the present invention for suppressing the foaming of macrophages, which triggers arterial sclerosis, was examined by an in vitro experiment using mouse peritoneal macrophages. 15-Week old female ICR mice (Nippon SLC) were subjected to bleeding by cutting off their cervicalis, and Hanks buffer (Nippon Seiyaku) was injected into their peritoneal cavities. After abdominal regions of the mice were massaged, the buffer was recovered immediately, and then the resulting buffer was centrifuged at 1,000 r.p.m. for five minutes to collect peritoneal macrophages. Then, the collected macrophages were suspended in GTI medium (Wako Pure Chemical Industries), and inoculated onto a 24-well microtiter plate. After the macrophages were cultivated at 37° C. under 5% CO2 for two hours, the culture medium was changed with Dulbecco Modified Eagle Medium (MEM, Nippon Seiyaku). The macrophages were further cultivated at 37° C. under 5% CO2 for 16 hours, and then a test compound and liposomes were added to the culture.
# (§3) After cultivation was further continued at 37° C. under 5% CO2 for 16 hours, lipid fraction was extracted with chloroform and methanol. The extracted lipid fraction was dissolved in isopropyl alcohol, and the produced cholesterol ester (CE) was quantified by an enzymatic luminescence method. Yield of the cholesterol ester was calculated as a relative ratio based on yield of the control as 100% where no test compound was added. Cytotoxicity was examined microscopically by observing morphological alteration of cells. In the tables, compound numbers correspond to those of the compounds of present invention described in the examples.
# [4] = tested on: mouse peritoneal macrophages; assay: Suppression of foaming of macrophages (cholesterol ester synthesis) in vitro; type: cell-based, mouse (female ICR); conditions: 5 μM, 16 hours, relative to control as 100%, smaller value = more potent suppression; for activity at 5 µM: Mus musculus, Peritoneal macrophage, read-out: Rate of CE synthesis (%)
# Experimental: Activity of the compounds of the present invention for suppressing the foaming of macrophages
# as §2
# 1) Test compound: dissolved in DMSO (Wako Pure Chemical Industries),
# PC: Phosphatidylcholine (Funakoshi);
# PS: Phosphatidylserine (Funakoshi);
# DCP: Dicetylphosphate (Funakoshi);
# CHOL: Cholesterol (Sigma)
# as §3
compound,measurement,setting,value
c1cnc(SCCCCCSc2nc3ccccc3[nH]2)nc1 [Compound B49],Reduction of the amount of deposited cholesterol on inner vascular walls of aortas compared with control,[1],45%
same,Difference in total cholesterol compared with the control group,[2],no difference in total cholesterol was observed
same,Increase of HDL cholesterol,[2],30%
same,Reduction of LDL cholesterol compared with the control group,[2],30%
same,GOT,[2],No abnormal value was observed
same,GPT,[2],No abnormal value was observed
same,Cytotoxicity,[3]; Table 4,Not observed
same,activity at 5 µM,[4]; Table 4,11%
Cc1nnc(SCCCCCSc2nc3ccccc3[nH]2)s1 [Compound B16],Reduction of the amount of deposited cholesterol on inner vascular walls of aortas compared with control,[1],40%
same,Difference in total cholesterol compared with the control group,[2],no difference in total cholesterol was observed
same,Increase of HDL cholesterol,[2],30%
same,Reduction of LDL cholesterol compared with the control group,[2],35%
same,GOT,[2],No abnormal value was observed
same,GPT,[2],No abnormal value was observed
same,Cytotoxicity,[3]; Table 4,Not observed
same,activity at 5 µM,[4]; Table 4,9.3%
"CNS(=O)(=O)c1ccc2c(c1)nc(SCCCCCSc1nc3ccccc3[nH]1)n2C [Compound A23, 1-(2'-(1'-methyl-5'-methylsulfamoylbenzimidazolyl)thio)-5-(2""-benzimidazolylthio)pentane]",Cytotoxicity,[3]; Table 3,Not observed
same,activity at 5 µM,[4]; Table 3,34%
"Cc1ccc2[nH]c(SCCCCCSc3nc4ccccc4[nH]3)nc2c1 [Compound A1, 1-(2'-(5'-methylbenzimidazolyl)thio)-5-(2""-benzimidazolylthio)pentane]",Cytotoxicity,[3]; Table 3,Not observed
same,activity at 5 µM,[4]; Table 3,41%
Cc1cc(C)nc(SCCCCCSc2nc3ccccc3[nH]2)n1 [Compound B51],Cytotoxicity,[3]; Table 4,Not observed
same,activity at 5 µM,[4]; Table 4,24%
"c1ccc(CCCCCSc2nc3ccccc3[nH]2)nc1 [Compound B43, 1-(2'-benzimidazolylthio)-5-(2""-pyridyl)pentane]",Cytotoxicity,[3]; Table 4,Not observed
same,Rate of CE synthesis (%),[4]; Table 4,12%
"CCOc1ccc2nc(SCCCCCSc3nc4ccccc4[nH]3)sc2c1 [Compound A35, 1-(2'-benzimidazolylthio)-5-(2""-(6""-ethoxybenzothiazolyl)thio)pentane]",Cytotoxicity,[3]; Table 3,Not observed
same,activity at 5 µM,[4]; Table 3,25%
"Clc1ccc2[nH]c(SCCCCCSc3nc4ccccc4[nH]3)nc2c1 [Compound A2, 1-(2'-(5'-chlorobenzimidazolyl)thio)-5-(2""-benzimidazolylthio)pentane]",Cytotoxicity,[3]; Table 3,Not observed
same,activity at 5 µM,[4]; Table 3,52%
Cc1ccnc(SCCCCCSc2nc3ccccc3[nH]2)n1 [Compound B50],Cytotoxicity,[3]; Table 4,Not observed
same,activity at 5 µM,[4]; Table 4,22%
CNS(=O)(=O)c1ccc2c(c1)nc(SCCCCCSc1ccccn1)n2C [Compound B66],Cytotoxicity,[3]; Table 4,Not observed
same,activity at 5 µM,[4]; Table 4,52%
"Clc1cc2nc(SCCCCCCCCSc3nc4ccccc4[nH]3)[nH]c2cc1Cl [Compound A13, 1-(2'-(5',6'-dichlorobenzimidazolyl)thio)-8-(2""-benzimidazolylthio)octane]",Cytotoxicity,[3]; Table 3,Not observed
same,activity at 5 µM,[4]; Table 3,58%
"N#Cc1ccc2[nH]c(SCCCCCSc3nc4ccccc4[nH]3)nc2c1 [Compound A17, 1-(2'-(5'-cyanobenzimidazolyl)thio)-5-(2""-benzimidazolylthio)pentane]",Cytotoxicity,[3]; Table 3,Not observed
same,activity at 5 µM,[4]; Table 3,24%
"Cc1cc2nc(CCCCCSc3nc4ccccc4[nH]3)[nH]c2cc1C [Compound A28, 2-(5-(2'-benzimidazolylthio)pentyl)-5,6-dimethylbenzimidazole]",Cytotoxicity,[3]; Table 3,Not observed
same,activity at 5 µM,[4]; Table 3,49%
CC1=CC(C)(C)NC(SCCCCCSc2nc3ccccc3[nH]2)=N1 [Compound B55],Cytotoxicity,[3]; Table 4,Not observed
same,activity at 5 µM,[4]; Table 4,52%
c1ccc(-c2cnc(SCCCCCSc3nc4ccccc4[nH]3)n2-c2ccccc2)cc1 [Compound B4],Cytotoxicity,[3]; Table 4,Not observed
same,activity at 5 µM,[4]; Table 4,47%
"c1ccc2[nH]c(SCCCCCSc3ncc[nH]3)nc2c1 [Compound B1, 1-(2'-benzimidazolylthio)-5-(2""-imidazolylthio)pentane]",Cytotoxicity,[3]; Table 4,Not observed
same,activity at 5 µM,[4]; Table 4,41%
Cn1cnnc1SCCCCCSc1nc2ccccc2[nH]1 [Compound B6],Cytotoxicity,[3]; Table 4,Not observed
same,activity at 5 µM,[4]; Table 4,22%
O=[N+]([O-])c1ccc2[nH]c(CCCCCSc3ccccn3)nc2c1 [Compound B46],Cytotoxicity,[3]; Table 4,Not observed
same,activity at 5 µM,[4]; Table 4,36%
"Clc1cc2nc(SCCCCCSc3nc4ccccc4[nH]3)[nH]c2cc1Cl [Compound A11, 1-(2'-(5',6'-dichlorobenzimidazolyl)thio)-5-(2""-benzimidazolylthio)pentane]",Cytotoxicity,[3]; Table 3,Not observed
same,activity at 5 µM,[4]; Table 3,9%
c1ccc(SCCCCCCSc2nc3ccccc3[nH]2)nc1 [Compound B31],Cytotoxicity,[3]; Table 4,Not observed
same,activity at 5 µM,[4]; Table 4,27%
